Values after ≈ are worked out from the molar mass of the structure shown. Where two headings read alike, the source gives them in different places.
What was measured:
[1] = system: E.coli; set-up: method as in doi:10.1039/b921805j, doi:10.1016/j.molliq.2016.05.093; settings: cited from earlier work
[2] = system: S.aureus; set-up: method as in doi:10.1039/b921805j, doi:10.1016/j.molliq.2016.05.093; settings: cited from earlier work
[3] = system: E. coli (ATCC-25922); assay: Minimal inhibitory/bactericidal concentrations (MIC/MBC); type: cell-based, Escherichia coli
Excerpt: (§1) The antimicrobial activity of newly synthesized benzyl thiazolium ionic liquids (BTILs) was investigated in vitro against the most common foodborne bacterial strains (Staphylococcus aureus (S. aureus, ATCC-25923) and Escherichia coli (E. coli, ATCC-25922)) in comparison with clinical drugs (Gentamycin (Gm) and Tetracyclin (TC)). These tests have been conducted in accordance with the standard antimicrobial assessment protocols we've described and used in our previous studies.[29] The diameters of the zone of inhibition (ZOI, mm), values of minimum inhibitory concentration (MIC), and minimal bactericidal concentration (MBC) were used as markers for the antimicrobial efficacy of the tested compounds.
(§2) As evident in Table 2, the results of MIC and MBC are in general accordance with the Well diffusion assay. […] In the literature, quantitative information on the antimicrobial activity of short-chained and benzyl-functionalized ionic liquids is scarce. In this context, few studies have reported the antibacterial impact of 1-alkyl-3-methylimidazolium ionic liquids, bound to different anions, upon various pathogenic bacteria.

[4] = system: S. aureus (ATCC-25923); assay: as above; type: cell-based, Staphylococcus aureus; settings: for MBC ± SD / MIC ± SD: S. aureus
Excerpt: as §1, §2

[5] = system: Staphylococcus aureus (S. aureus, ATCC-25923); assay: Well diffusion assay (zone of inhibition); type: cell-based
Excerpt: as §1, with “These tests have been conducted in accordance with the standard antimicrobial assessment protocols we've described and used in our previous studies.[29]” left out
The antibacterial activities of novel TILs against S. aureus and E. coli were screened in vitro, as compared to clinical antibiotics (Gentamycin (Gm) and Tetracyclin (TC)). […] Gram-negative bacteria' outer membranes, which are composed of impermeable lipopolysaccharides (LPS), phospholipids, and lipoproteins, may act as a barrier to the entry of antimicrobial molecules, whereas Gram-positive bacteria's outer membranes have no LPS layer and are composed only of a thick peptidoglycan layer which can easily absorb and transfer such antimicrobials to the inner cell membrane.[43]

[6] = system: normal human skin fibroblast cells (HSF); assay: MTT cytotoxicity assay; type: cell-based; settings: HSF, MTT, 24 h of treatment
Procedure: (§3) The antiproliferative activity of novel BTILs was tested in vitro against two cell lines: ovarian cancer (SKOV-3) and normal human skin fibroblast cells (HSF) using the standard MTT cytotoxicity assay described in our previous work.[30] The cell viability ratios, half-maximal inhibitory concentration (IC50), and selectivity index (SI) were used as performance indices for the cytotoxicity of tested compounds. The clinical anticancer drug (cisplatin, CDDP) was used as a positive control.
(§4) To explore the selectivity of the newly synthesized TILs for attacking cancer cells over normal ones, the effects of serial concentrations (0–200 μM) of these TILs on the proliferation of normal human skin fibroblast (HSF) cells were also studied for a period of 24 h. […] For example, treatment of both cell lines with 100 μM of [^iPBzTh][Tf2N] […] [MBzTh][BF4]

[7] = MTT cytotoxicity assay; type: cell-based, human; settings: human, normal human skin fibroblast (HSF) cells; 200 μM, 24 h
Procedure: as §3, §4

[8] = system: ovarian carcinoma cell lines (SKOV-3); assay: MTT cytotoxicity assay; type: cell-based, human; settings: for IC50: SKOV-3, MTT, 24 h of treatment; for Selectivity index (SI): cancer cells (SKOV-3) over normal ones (HSF)
Procedure: as §3
The use of ionic liquids (ILs) in pharmaceutical and medicinal chemistry has recently piqued the interest of researchers across the globe.[12] In this scenario, several studies have documented the anticancer potential of ILs.[20,48] In order to find potential safe anticancer candidates, the cytotoxicity of imidazolium, ammonium, pyridinium, and phosphonium ILs was tested against over 60 human cancer cell lines.[12,49] […] Besides, the cytotoxicity of ILs is strongly correlated to the counter anion. For instance, the cytotoxicity of 1-alkyl-3-methylimidazolium cation [RMIM]^+ follows the following trend; [RMIM][Tf2N] ≫ [RMIM][BF4] > [RMIM][Cl].[50] To our knowledge, no previous studies have been reported so far for using thiazolium ILs for anticancer purposes. These facts have inspired us to design and study the antiproliferative activity of new thiazolium ILs tethering different anions (BF4 (3a–c) and Tf2N (4a–c)) against ovarian carcinoma cell lines (SKOV-3) and normal human skin fibroblast cells (HSF). The 3-(4,5-dimethylthiazol-2-yl)-2,5-diphenyltetrazolium bromide (MTT) assay was used to carry out this study, with cisplatin (CDDP) serving as a positive control. Initially, the impacts of serial concentrations (2.5–100 μM) of the thiazolium ILs on the viability of the SKOV-3 cell lines were assessed as compared to CDDP. […] In general, TILs bound to Tf2N anion (4a–c) inhibited the proliferation of SKOV-3 cells more effectively than the corresponding tetrafluoroborate analogues (3a–c). For instance, [^iPBzTh][Tf2N] (4b) is the most cytotoxic one and can reduce the SKOV-3 cellular viability to a minimum value (10.5 ± 1.7%, Fig. 5A) at its treatment dosage of 100 μM. Conversely, [MBzTh][BF4]
At definite time intervals, the SKOV-3 cell viability has been measured.

[9] = Thermal stability by TG/DTG; type: physicochemical; settings: taken from DTG curves
Procedure: The thermogravimetric (TG) curves of the room temperature thiazolium ionic liquids (RTTILs) (3a, 4a–c) (Fig. 1A) were employed for the investigation of their thermal stabilities. It is evident that they are thermally stable up to 270 °C and then undergo a sharp degradation phase in the temperature range of 270–350 °C. […] The first main decomposition phase (∼81% weight loss) starts at 323 °C, followed by a modest decomposition stage between 496 and 618 °C. […] The first thermal degradation step begins at 298 °C (∼52% weight loss) and is followed by two smaller degradation steps at 353 and 418 °C, respectively.

[10] = Viscosity by capillary viscometer; type: physicochemical; settings: at 50 °C and concentrations 0.5 mg mL^−1, capillary viscometer
Excerpt: Also, the viscosity of new benzyl thiazolium ionic liquids depends on the intrinsic structural features of the cation and anion. […] This behavior can be explained based on the fact that the extremely hydrophobic Tf2N^− anion, enriched with fluorine electrons, exerts higher ion–ion interactions with hydrophobic tert-butylbenzyl-methylthiazolium cation, resulting in an increase in viscosity.[35]

| Molecule | MBC ± SD [3] | MIC ± SD [3] | MBC ± SD [4] | MIC ± SD [4] | Zone of inhibition (ZOI) [5] | IC50 [8] | Selectivity index (SI) [8] | IC50 [6] | other results |
| --- | --- | --- | --- | --- | --- | --- | --- | --- | --- |
| CCCCCCn1cc[n+](C)c1.O=S(=O)([N-]S(=O)(=O)C(F)(F)F)C(F)(F)F [1-hexyl-3-methylimidazolium bis((trifluoromethyl)sulfonyl)amide] |  |  |  |  |  |  |  |  | MBC [1]: 24.59 mM; MIC [1]: 24.59 mM; MBC [2]: 9.13 mM; MIC [2]: 9.13 mM |
| Cc1ccc(C[n+]2cscc2C)cc1.[Cl-] [2a, 3-(4-Methylbenzyl)-4-methylthiazol-3-ium chloride] | 12.25 ± 0.36 mM | 6.75 ± 0.35 mM | 4.25 ± 0.31 mM | 4.05 ± 0.29 mM |  |  |  |  | MBC ± SD ([3]; listed as [MBzTh][Cl]): 12.25 mM; MIC ± SD ([3]; listed as [MBzTh][Cl]): 6.75 mM; MBC ± SD ([4]; listed as [MBzTh][Cl]): 4.25 mM; MIC ± SD ([4]; listed as [MBzTh][Cl]): 4.05 mM |
| Cc1csc[n+]1Cc1ccc(C(C)C)cc1.[Cl-] [2b, 3-(4-Isopropylbenzyl)-4-methylthiazol-3-ium chloride] | 5.25 ± 0.29 mM | 5.25 ± 0.31 mM | 2.35 ± 0.28 mM | 2.35 ± 0.27 mM | 32.13 mm |  |  |  |  |
| Cc1csc[n+]1Cc1ccc(C(C)(C)C)cc1.[Cl-] [2c, 3-(4-(tert-Butyl)benzyl)-4-methylthiazol-3-ium chloride] | 6.25 ± 0.29 mM | 6.25 ± 0.27 mM | 3.75 ± 0.14 mM | 3.75 ± 0.19 mM |  |  |  |  |  |
| Cc1ccc(C[n+]2cscc2C)cc1.F[B-](F)(F)F [3a, 3-(4-Methylbenzyl)-4-methylthiazol-3-ium tetrafluoroborate] | 5.75 ± 0.45 mM | 5.75 ± 0.41 mM | 3.25 ± 0.21 mM | 3.25 ± 0.19 mM | 39.21 mm | 78 ± 1.35 µM | 2.28 |  | IC50 ([6]; Homo sapiens, Skin fibroblast, 24 h): 178 ± 8.79 µM; viability at 24 h, 200 µM [7]: 45.5 ± 4.1%; Reduction in SKOV-3 viability ([8]; 100 μM, 24 h): 54.6%; T dec (decomposition temperature) [9]: 340.3 °C; η (viscosity) [10]: 439.25 ± 5.3 cP |
| Cc1csc[n+]1Cc1ccc(C(C)C)cc1.F[B-](F)(F)F [3b, 3-(4-Isopropylbenzyl)-4-methylthiazol-3-ium tetrafluoroborate] | 6.25 ± 0.23 mM | 5.25 ± 0.29 mM | 2.56 ± 0.15 mM | 2.56 ± 0.13 mM | 41.86 mm | 35.7 ± 1.03 µM | 4.26 | 152 ± 9.15 µM |  |
| Cc1csc[n+]1Cc1ccc(C(C)(C)C)cc1.F[B-](F)(F)F [3c, 3-(4-(tert-Butyl)benzyl)-4-methylthiazol-3-ium tetrafluoroborate] | 6.50 ± 0.39 mM | 6.50 ± 0.39 mM | 3.12 ± 0.14 mM | 3.12 ± 0.19 mM | 39.02 mm | 51.1 ± 2.33 µM | 3.76 | 191 ± 9.85 µM |  |
| [NH2][Pt]([NH2])([Cl])[Cl] [CDDP, cisplatin, reference compound] |  |  |  |  |  | 79.5 ± 1.18 µM | 0.73 | 58.3 ± 6.67 µM | SKOV-3 cell viability ([8]; IC50 dose, after 72 h): 10.2 ± 2.7% |
| CN(C)[C@@H]1C(O)=C(C(N)=O)C(=O)[C@@]2(O)C(O)=C3C(=O)c4c(O)cccc4[C@@](C)(O)[C@H]3C[C@@H]12 [Tetracycline, reference compound] |  |  |  |  |  |  |  |  | MIC ([4]; Staphylococcus aureus, ATCC25923, S. aureus): 7.2 ± 0.66 mM (≈ 3200 µg/mL) |
| Gentamycin [reference compound] |  | 6.85 ± 0.63 mM |  |  |  |  |  |  |  |

Source: PMC8978639, “Fine-tuning of the pharmacological potential of novel thiazolium ionic liquids by anion alteration” (RSC Advances, 2021)
